Measured values reported in patent publication US9540613B2, “Methods for producing insulin-secreting beta cells from human pluripotent stem cells” (Wisconsin Alumni Research Foundation, priority 2013, dated 2017).

How the values were obtained:
[1] = tested on: PDX1 and insulin protein expression in H1 cells; experiment: Flow cytometry of PDX1 and insulin protein expression at end of Stage 4; format: cell-based, human; settings: for PDX1 and insulin double positive cells: loss of both nicotinamide and Exendin-4 from Stage 4 medium
Description: To quantify insulin and PDX1 protein expression we optimized a flow cytometry assay. […] The INS-1 cell line is an immortalized pancreatic beta cell line that expresses both PDX1 and insulin. On the bottom left, is our negative control, unstained H1 cells differentiated for 18 days. On the right, is H1 cells differentiated by the current protocol through day 18 stained with Insulin-PB and PDX1-AF488. […] Only 8-11% of the cells are PDX1 and insulin double positive.
To examine protein expression we collected cells at the end of Stage 4 and examined them by flow cytometry.
Thus, the effect of Noggin is context dependent and synergistic with nicotinamide and Exendin-4.

[2] = tested on: PDX1, NKX6.1, Neurogenin 3 and insulin gene expression; experiment: QPCR gene expression of endoderm and pancreatic markers in differentiated cells; format: cell-based, human; settings: presence or absence of nicotinamide at Stage 3
Experimental: QPCR was performed at the end of Stage 4 ([…] Day 18) to examine gene expression of PDX1, a marker of pancreatic epithelium and progenitor cells, insulin, a marker of beta cells, and Sox9 which is expressed in the developing pancreatic epithelium. The gene expression is compared to undifferentiated cells collected at Day 0 and β-Actin is the internal control. […] Human Fetal Pancreas (HFP), gestation 14-20 weeks, is represented as a positive control.
In FIG. 19, the gene expression is compared to undifferentiated cells collected at Day 0 and B-Actin is the internal control. On the y axis is delta CT (instead of fold change), thus, the lower the value the greater the gene expression.
First, alterations at Stage 3 and 4 altered gene expression minimally. […] On the y axis is delta CT (instead of fold change), thus, the lower the value the greater the gene expression. […] In contrast the addition of Noggin at Stage 4, decreased PDX1 and NKX6.1 gene expression and increased Neurogenin 3 expression. There was no difference in insulin gene expression following the addition of Noggin to Stage 4.

[3] = addition of nicotinamide at Stage 3, cells at end of Stage 4

Compound | insulin protein expression ([1]; FGF2 instead of FGF7 at Stage 2) | protein expression of either PDX1 or insulin ([1]; loss of Exendin-4 from Stage 4 medium) | PDX1 and insulin double positive cells [1] | gene expression (delta CT) [2] | PDX1 protein expression [1, 3] | double positive PDX and insulin positive cells [1, 3] | insulin protein expression [1, 3] | protein expression ([1]; loss of nicotinamide from Stage 4 medium)
FGF2: Basic fibroblast growth factor | less insulin protein expression |  |  |  |  |  |  | 
Exendin-4: a long-acting GLP-1 agonist |  | little to no difference | increases PDX1 and insulin double positive cells |  |  |  |  | 
NC(=O)c1cccnc1 [nicotinamide] |  |  | increases PDX1 and insulin double positive cells | did not alter gene expression | decreased | little difference | increased | little to no loss
